How the values were obtained:
Type in all cases: cell-based, human
Conditions in all cases: 10 μM
OVCAR-4 = test: NCI-60 screen, Ovarian Cancer
Procedure: (§1) Several compounds were tested at single concentrations (10 μM) against 59 different human tumor cell lines, representing leukemia, melanoma and cancers of the lung, colon, brain, ovary, breast, prostate, and kidney (see, Table 3). The human tumor cell lines of the cancer screening panel were grown in RPMI 1640 medium containing 5% fetal bovine serum and 2 mM L-glutamine. For a typical screening experiment, cells were inoculated into 96 well microtiter plates in 100 μL at plating densities ranging from 5,000 to 40,000 cells/well depending on the doubling time of individual cell lines. After cell inoculation, the microtiter plates were incubated at 37° C., 5% CO2, 95% air and 100% relative humidity for 24 hours prior to addition of the compounds.
(§2) After 24 hours, two plates of each cell line were fixed in situ with TCA, to represent a measurement of the cell population for each cell line at the time of drug addition (Tz). Compounds were solubilized in dimethyl sulfoxide at 400-fold the desired final maximum test concentration and stored frozen prior to use. At the time of drug addition, an aliquot of frozen concentrate was thawed and diluted to twice the desired final maximum test concentration with complete medium containing 50 μg/ml gentamicin. Additional four, 10-fold or ½ log serial dilutions were made to provide a total of five compound concentrations plus control. Aliquots of 100 μl of these different drug dilutions were added to the appropriate microtiter wells already containing 100 μl of medium, resulting in the required final compound concentrations.
(§3) Following drug addition, the plates were incubated for an additional 48 hours at 37° C., 5% CO2, 95% air, and 100% relative humidity. For adherent cells, the assay was terminated by the addition of cold TCA. Cells were fixed in situ by the gentle addition of 50 μl of cold 50% (w/v) TCA (final concentration, 10% TCA) and incubated for 60 minutes at 4° C. The supernatant was discarded, and the plates were washed five times with tap water and air dried. Sulforhodamine B (SRB) solution (100 μl) at 0.4% (w/v) in 1% acetic acid was added to each well, and plates were incubated for 10 minutes at room temperature. After staining, unbound dye was removed by washing five times with 1% acetic acid and the plates were air dried. Bound stain was subsequently solubilized with 10 mM trizma base, and the absorbance was read on an automated plate reader at a wavelength of 515 nm. For suspension cells, the methodology was the same except that the assay was terminated by fixing settled cells at the bottom of the wells by gently adding 50 μl of 80% TCA (final concentration, 16% TCA). Using the seven absorbance measurements (time zero, (Tz), control growth, (C), and test growth in the presence of drug at the five concentration levels (Ti)), the percentage growth was calculated at each of the compound concentrations levels. Percentage growth inhibition was calculated as:
(§4) [(Ti−Tz)/(C−Tz)]×100 for concentrations for which Ti>/=Tz
(§5) [(Ti−Tz)/Tz]×100 for concentrations for which Ti<Tz.
(§6) Three dose response parameters were calculated for each compound. Growth inhibition of 50% (GI50) was calculated from [(Ti−Tz)/(C−Tz)]×100=50, which is the compound concentration resulting in a 50% reduction in the net protein increase (as measured by SRB staining) in control cells during the compound incubation. The compound concentration resulting in total growth inhibition (TGI) was calculated from Ti=Tz. The LC50 (concentration of compound resulting in a 50% reduction in the measured protein at the end of the compound treatment as compared to that at the beginning) indicating a net loss of cells following treatment was calculated from [(Ti−Tz)/Tz]×100=−50. Values were calculated for each of these three parameters if the level of activity was reached; however, if the effect was not reached or was exceeded, the value for that parameter was expressed as greater or less than the maximum or minimum concentration tested.

OVCAR-5 = test: NCI-60 screen, Ovarian Cancer
Procedure: as §1, §2, §3, §4, §5, §6

OVCAR-8 = test: NCI-60 screen, Ovarian Cancer
Procedure: as §1, §2, §3, §4, §5, §6

SK-OV-3 = test: NCI-60 screen, Ovarian Cancer
Procedure: as §1, §2, §3, §4, §5, §6

OVCAR-3 = test: NCI-60 screen, Ovarian Cancer
Procedure: as §1, §2, §3, §4, §5, §6

NCI/ADR-RES = test: NCI-60 screen, Ovarian Cancer
Procedure: as §1, §2, §3, §4, §5, §6

IGROV1 = test: NCI-60 screen, Ovarian Cancer
Procedure: as §1, §2, §3, §4, §5, §6

SK-MEL-28 = test: NCI-60 screen, Melanoma
Procedure: as §1, §2, §3, §4, §5, §6

SK-MEL-5 = test: NCI-60 screen, Melanoma
Procedure: as §1, §2, §3, §4, §5, §6

MALME-3M = test: NCI-60 screen, Melanoma
Procedure: as §1, §2, §3, §4, §5, §6

UACC-62 = test: NCI-60 screen, Melanoma
Procedure: as §1, §2, §3, §4, §5, §6

SF-539 = test: NCI-60 screen, CNS Cancer
Procedure: as §1, §2, §3, §4, §5, §6

SNB-75 = test: NCI-60 screen, CNS Cancer
Procedure: as §1, §2, §3, §4, §5, §6

SF-295 = test: NCI-60 screen, CNS Cancer
Procedure: as §1, §2, §3, §4, §5, §6

SF-268 = test: NCI-60 screen, CNS Cancer
Procedure: as §1, §2, §3, §4, §5, §6

U251 = test: NCI-60 screen, CNS Cancer
Procedure: as §1, §2, §3, §4, §5, §6

SNB-19 = test: NCI-60 screen, CNS Cancer
Procedure: as §1, §2, §3, §4, §5, §6

EKVX = test: NCI-60 screen, Non-Small Cell Lung Cancer
Procedure: as §1, §2, §3, §4, §5, §6

HOP-92 = test: NCI-60 screen, Non-Small Cell Lung Cancer
Procedure: as §1, §2, §3, §4, §5, §6

A549/ATCC = test: NCI-60 screen, Non-Small Cell Lung Cancer
Procedure: as §1, §2, §3, §4, §5, §6

NCI-H460 = test: NCI-60 screen, Non-Small Cell Lung Cancer
Procedure: as §1, §2, §3, §4, §5, §6

NCI-H23 = test: NCI-60 screen, Non-Small Cell Lung Cancer
Procedure: as §1, §2, §3, §4, §5, §6

NCI-H522 = test: NCI-60 screen, Non-Small Cell Lung Cancer
Procedure: as §1, §2, §3, §4, §5, §6

NCI-H322M = test: NCI-60 screen, Non-Small Cell Lung Cancer
Procedure: as §1, §2, §3, §4, §5, §6

NCI-H226 = test: NCI-60 screen, Non-Small Cell Lung Cancer
Procedure: as §1, §2, §3, §4, §5, §6

HOP-62 = test: NCI-60 screen, Non-Small Cell Lung Cancer
Procedure: as §1, §2, §3, §4, §5, §6

SMILES | Percent Growth (OVCAR-4) [%] | Percent Growth (OVCAR-5) [%] | Percent Growth (OVCAR-8) [%] | Percent Growth (SK-OV-3) [%] | Percent Growth (OVCAR-3) [%] | Percent Growth (NCI/ADR-RES) [%] | Percent Growth (IGROV1) [%] | Percent Growth (SK-MEL-28) [%] | Percent Growth (SK-MEL-5) [%] | Percent Growth (MALME-3M) [%] | Percent Growth (UACC-62) [%] | Percent Growth (SNB-75) [%] | Percent Growth (SF-295) [%] | Percent Growth (SF-268) [%] | Percent Growth (SNB-19) [%] | Percent Growth (EKVX) [%] | Percent Growth (HOP-92) [%] | Percent Growth (NCI-H460) [%] | Percent Growth (NCI-H23) [%] | Percent Growth (NCI-H522) [%] | also measured
NCCSc1cc(SCCN)c(C(F)(F)F)cc1NC(=O)c1cc(C(=O)Nc2cc(C(F)(F)F)c(SCCN)cc2SCCN)ncn1 [Compound F] | −1.474 | 59.37 | 14.34 | 15.33 | −15.5 | 54.76 | 4.7 | 83.94 | 62.3 | 80.15 | 51.23 | −20.24 | 57.66 | 32.42 | 49.54 | 75.72 | −24.05 | 47.73 | 60.86 | −2.5 | Percent Growth (SF-539): 65.73%; Percent Growth (U251): 23.67%; Percent Growth (A549/ATCC): 15.81%; Percent Growth (NCI-H322M): 55.48%; Percent Growth (NCI-H226): 66.85%; Percent Growth (HOP-62): 29.35%
N=C(N)NCCCCC(=O)Nc1cc(C(F)(F)F)cc(NC(=O)Nc2ccc(NC(=O)Nc3cc(C(F)(F)F)cc(NC(=O)CCCCNC(=N)N)c3OC3CCNC3)cc2)c1OC1CCNC1 (stereo not drawn) [Compound B] | 23.18 | 77.33 | 66.59 | 59.3 | 45.06 | 87.71 | 82.4 | 68.29 | 50.91 | 83.13 | 75.91 | 19.48 | 38.86 | 49.93 | 49.16 | 61.92 | 81.51 | 50.72 | 77.57 | −11.87 | Percent Growth (SF-539): 30.8%; Percent Growth (U251): 37.71%; Percent Growth (A549/ATCC): 49.78%; Percent Growth (NCI-H322M): 80.76%; Percent Growth (NCI-H226): 51.21%; Percent Growth (HOP-62): 23.47%
N=C(N)NCCCCC(=O)Nc1cc(C(F)(F)F)cc(NC(=O)c2cc(C(=O)Nc3cc(C(F)(F)F)cc(NC(=O)CCCCNC(=N)N)c3SCCN)ncn2)c1SCCN [Compound C] | 38.79 | 75.78 | 39.11 | 82.66 | 37.56 | 55.27 | 51.71 | 61.39 | 34.55 | 63.62 | 55.93 | 22.47 | 39.81 | 53.24 | 47.25 | 59.82 | 93.99 | 28.72 | 80.24 | −26.87 | Percent Growth (SF-539): 70.3%; Percent Growth (U251): 31.28%; Percent Growth (A549/ATCC): 37.26%; Percent Growth (NCI-H322M): 83.13%; Percent Growth (NCI-H226): 63.82%; Percent Growth (HOP-62): 37.78%
NCCc1cc(Br)cc(C#Cc2cccc(C#Cc3cc(Br)cc(CCN)c3)c2)c1 [Compound A] | −28.5 | 60.77 | −14.54 | 94.37 | −35.66 | 23.97 | −4.832 | 79.76 | 80.5 | 106.8 | 26.03 | −2.087 | 3.17 | 61.55 | 27.06 | 62.48 | 73.03 | −49.11 | 94.81 | −78.21 | Percent Growth (U251): −64.65%; Percent Growth (A549/ATCC): −15.97%; Percent Growth (NCI-H322M): 53%; Percent Growth (NCI-H226): 108.9%; Percent Growth (HOP-62): 21.99%
c1cc(-c2ccc3sc4ccc(-c5ccnc(N6CCNCC6)c5)cc4c3c2)cc(N2CCNCC2)n1 [Compound E] | −87.74 | −46.66 | −61.04 | 51.66 | −94.47 | 3.12 | −43.57 | −51.91 | 63.85 | −4.679 | −41.07 | −94.79 | −50.65 | −37.05 | −43.97 | 22.56 | 32.76 | −78.46 | 52.19 | −93.93 | Percent Growth (SF-539): 14.26%; Percent Growth (U251): −85.72%; Percent Growth (A549/ATCC): −77.24%; Percent Growth (NCI-H322M): −53.02%; Percent Growth (NCI-H226): 39.89%; Percent Growth (HOP-62): −80.18%
NCCCc1cccc(-c2ccc3oc4ccc(-c5cccc(CCCN)c5)cc4c3c2)c1 [Compound G] | 54.91 | 64.48 | 33.74 | 94.45 | 18.54 | 83.66 | 42.2 | 102.1 | 89.15 | 105 | 72.92 | 66.47 | 65.4 | 75.18 | 88.57 | 81.69 | 61.6 | 23.91 | 99.38 | 69.45 | Percent Growth (SF-539): 86.73%; Percent Growth (NCI-H322M): 108.3%; Percent Growth (NCI-H226): 104.4%; Percent Growth (HOP-62): 72.69%
